Source: article PMC11320734 (ACS Pharmacology & Translational Science, 2024)
Read-outs that look alike come from different tables or passages of the source.

How the values were obtained:
CYP450 3A4 = target: T1, CYP450 3A4 (Homo sapiens, UniProt P08684); assay: CYP inhibition in pooled human liver microsomes; assay type: in vitro ADME
T1 construct: pooled human liver microsomes; from tissue; host or cells: pooled human liver microsomes
Description: (§1) Cytochrome P450 (CYP) assays were conducted as previously described.[41] In brief, RNB-61 was incubated at a range of concentrations with the following components: pooled human liver microsomes, CYP probe substrate around the reported Km, and NADPH with a final concentration: 1 mM in 100 mM sodium phosphate buffer (pH 7.4). The conditions were optimized for a linear metabolic rate for the probe substrate reactions. The analysis of the samples was carried out by LC-MS/MS. The assays generated two endpoints: IC50 (μM) and percent inhibition at the highest acceptable test concentration (typically 50 μM; lower if the highest concentration data are rejected due to insolubility). […] (GSH) adduct formation data was assessed as reported in a previous study.[42] Briefly, RNB-61 was incubated with human liver microsomes to form reactive metabolites, and glutathione was added as a nucleophile to convert the reactive metabolites into stable conjugates that could be analyzed by MS.

CYP450 2C9 = target: T2, CYP450 2C9 (Homo sapiens, UniProt P11712); assay: CYP inhibition in pooled human liver microsomes; assay type: in vitro ADME
T2 construct: pooled human liver microsomes; from tissue; host or cells: pooled human liver microsomes
Description: as §1

CYP450 2D6 = target: T3, CYP450 2D6 (Homo sapiens, UniProt P10635); assay: CYP inhibition in pooled human liver microsomes; assay type: in vitro ADME
T3 construct: pooled human liver microsomes; from tissue; host or cells: pooled human liver microsomes
Description: as §1

[1] = Single-dose pharmacokinetics in male Wistar rats; assay type: in vivo; settings: rat, plasma
Description: To characterize the pharmacokinetic behavior of RNB-61, studies in rodents were conducted at the in vivo facility of F. Hoffmann-La Roche Ltd. (Basel, Switzerland). The plasma-concentration time profile was studied in rodents after single-dose RNB-61 administration by oral gavage (p.o. microsuspension excipients 7.5% gelatin/0.62% NaCl) and intravenous bolus injection (i.v. solution, excipients NMP:NaCl (30:70)). Three groups of male Wistar rats (n = 2 per group) were administered RNB-61 either at 1 mg kg^–1 i.v., 3 mg kg^–1 p.o., or 26 mg kg^–1 p.o. Plasma samples were drawn at 0.083, 0.25, 0.5, 1, 2, 4, 8, and 24 postdose in the i.v. group and at 0.25, 0.5, 0.75, 1.5, 3, 5, 8, and 24 h postdose in the p.o. groups. The samples were analyzed for RNB-61 concentration by LC/MS-MS. For the LC/MS-MS analysis, and the samples were prepared by adding 100 uL to 400 uL ACN with ISTD (100 ng/mL Bosantan in ACN/MeOH 1/1), stirring, and centrifuging (4000 rpm, 65’). 100 uL of the supernatant were pipetted and diluted with 400 μL H2O at pH 3. The analytes were separated on a Restek C18 column (5 μm, 1.0 × 3 mm). The mobile phase consisted of water containing 0.1% HCOOH as solvent A and ACN containing 0.1% HCOOH as solvent B. The gradient curve starting with 5% B was changed to 90% B between 0.4 and 0.6 min and further increased to 95% B between 0.6 and 1.2 min. This was maintained until 1.4 min and then reduced and kept at 5% B between 1.45 and 2.0 min. The mass spectrometer was operated in the positive mode. All LC-MS/MS was done using the Agilent RapidFire Analyzer software (version 4.3). The pharmacokinetic parameters were estimated by noncompartmental analysis in the Certara WinNonlin software (version 5.3). A similar study design was run in mice with three groups receiving 2 mg kg^–1 i.v., 4 mg kg^–1 p.o., or 26 mg kg^–1 p.o., and plasma sampling occurring in a composite profile (n = 2 for each time point) up to 7 or 24 h postdose. Male C57/BL6 mice (n = 5 per group) were used to study the influence of P-gp efflux on brain penetration. Two groups of mice were administered RNB-61 by i.v. bolus injection at 1 mg kg^–1 (2 groups). In order to block P-gp activity, an i.v. bolus of 5 mg kg^–1 tariquidar[46] was injected into one group 30 min prior to RNB-61. Plasma was collected at 0.083, 0.25, 0.5, 2, 4, and 7 h postdose in a composite profile. Brain, CSF, and vitreous body were collected at terminal time points 0.5, 2, 4, and 7 h postdose.

Microsomal clearance [2] = assay type: in vitro ADME; settings: rat, rat microsomes
TRPA1 = TRPA1 (Homo sapiens, UniProt O75762); assay: Endocannabinoid target profiling: TRPA1; settings: Table S1; read-out: TRPA1 (Ki, IC50)
human CB2R = human CB2R (Homo sapiens, UniProt P34972); assay: Competition binding assay with [3H]-CP55940, HEK cell membranes
Description: (§2) Competition and saturation binding assays were performed using the radiolabeled CB1R/CB2R agonist [^3H]-CP55940 (PerkinElmer).
(§3) Binding reactions were terminated by vacuum filtration onto 0.5% polyethylenimine presoaked GF/B filter plates (Packard) using a Filtermate cell harvester followed by 6 brief washes with 0.3 mL/well of ice-cold wash buffer. Wash buffer comprising 50 mmol L^–1 Tris- HCl, 5 mmol L^–1 MgCl2, 2.5 mmol L^–1 EDTA, and 0.5% fatty acid-free BSA, pH 7.4. Plates were dried at 50 °C for 1 h and liquid scintillation counting was used to determine levels of bound radiolabel. IC50 values and Hill slopes were determined with a 4-parameter logistic model using ActivityBase (ID Business Solution, Guilford, UK) and pKi values were determined using the Cheng–Prusoff equation as shown below: [drawing 1] where S indicates the concentration of the substrate and Km depicts the affinity constant of the substrate.

Microsomal clearance [3] = assay type: in vitro ADME; settings: human, human microsomes; Table 1
[4] = tested on: endocannabinoid membrane transporter (EMT); assay: Endocannabinoid target profiling: cellular AEA uptake; assay type: cell-based
80 additional receptors = assay: CEREP off-target binding screen
GPR55 = GPR55 (Homo sapiens, UniProt Q9Y2T6); assay: Endocannabinoid target profiling: GPR55; settings: Table S1; read-out: GPR55 (Ki, IC50)
hCB1R = hCB1R (Homo sapiens, UniProt P21554); assay: Competition binding assay with [3H]-CP55940, HEK cell membranes; settings: read-out: Ki hCB1R (binding assay); [3H]-CP55940 competition; mean ± SD
hCB1R, sequence (P21554 whole entry): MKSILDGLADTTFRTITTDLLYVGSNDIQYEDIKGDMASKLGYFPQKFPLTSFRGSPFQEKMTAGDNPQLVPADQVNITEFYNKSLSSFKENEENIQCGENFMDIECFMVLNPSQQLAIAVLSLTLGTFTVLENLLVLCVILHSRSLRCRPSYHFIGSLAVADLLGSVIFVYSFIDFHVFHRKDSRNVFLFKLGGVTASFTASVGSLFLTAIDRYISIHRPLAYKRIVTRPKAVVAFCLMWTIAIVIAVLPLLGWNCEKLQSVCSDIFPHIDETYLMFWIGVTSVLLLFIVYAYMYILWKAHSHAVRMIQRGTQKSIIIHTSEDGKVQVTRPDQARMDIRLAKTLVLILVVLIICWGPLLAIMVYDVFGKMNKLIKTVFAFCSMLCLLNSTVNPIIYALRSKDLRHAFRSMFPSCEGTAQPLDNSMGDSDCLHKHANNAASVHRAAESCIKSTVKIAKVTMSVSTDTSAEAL
Description: as §2, §3

human CB2R, sequence (P34972 whole entry): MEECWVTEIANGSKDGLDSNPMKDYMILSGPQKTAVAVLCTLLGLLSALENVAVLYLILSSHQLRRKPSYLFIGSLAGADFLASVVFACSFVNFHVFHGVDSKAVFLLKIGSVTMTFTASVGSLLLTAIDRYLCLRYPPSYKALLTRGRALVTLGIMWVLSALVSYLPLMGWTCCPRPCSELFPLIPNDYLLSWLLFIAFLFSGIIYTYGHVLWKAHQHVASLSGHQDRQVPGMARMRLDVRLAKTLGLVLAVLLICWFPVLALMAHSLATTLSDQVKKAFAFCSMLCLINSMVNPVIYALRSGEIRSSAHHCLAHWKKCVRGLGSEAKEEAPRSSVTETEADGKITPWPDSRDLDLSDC
GPR55, sequence (Q9Y2T6 whole entry, species assumed): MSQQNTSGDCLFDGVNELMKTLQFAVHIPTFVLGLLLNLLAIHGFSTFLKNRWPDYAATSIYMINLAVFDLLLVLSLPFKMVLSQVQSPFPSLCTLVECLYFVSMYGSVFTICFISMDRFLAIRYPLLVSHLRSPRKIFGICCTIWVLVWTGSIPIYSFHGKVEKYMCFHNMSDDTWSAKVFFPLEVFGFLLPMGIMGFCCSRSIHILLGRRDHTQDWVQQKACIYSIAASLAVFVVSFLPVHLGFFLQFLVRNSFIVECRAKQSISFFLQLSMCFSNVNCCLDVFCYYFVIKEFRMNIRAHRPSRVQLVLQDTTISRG
T3 sequence (P10635 whole entry): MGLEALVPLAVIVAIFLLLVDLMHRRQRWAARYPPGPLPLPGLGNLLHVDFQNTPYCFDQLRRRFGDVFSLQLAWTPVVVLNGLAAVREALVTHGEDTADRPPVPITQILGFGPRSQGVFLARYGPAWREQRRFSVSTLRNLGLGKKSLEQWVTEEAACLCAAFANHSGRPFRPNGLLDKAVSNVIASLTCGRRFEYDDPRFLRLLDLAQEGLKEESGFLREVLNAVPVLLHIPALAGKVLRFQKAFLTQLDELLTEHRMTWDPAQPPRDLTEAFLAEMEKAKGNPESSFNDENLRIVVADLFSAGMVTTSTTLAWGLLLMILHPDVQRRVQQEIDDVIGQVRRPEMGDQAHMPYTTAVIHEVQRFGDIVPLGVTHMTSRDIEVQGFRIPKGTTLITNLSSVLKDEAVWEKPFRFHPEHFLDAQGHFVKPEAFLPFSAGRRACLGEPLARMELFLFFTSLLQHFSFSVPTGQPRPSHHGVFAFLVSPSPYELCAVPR
T2 sequence (P11712 whole entry): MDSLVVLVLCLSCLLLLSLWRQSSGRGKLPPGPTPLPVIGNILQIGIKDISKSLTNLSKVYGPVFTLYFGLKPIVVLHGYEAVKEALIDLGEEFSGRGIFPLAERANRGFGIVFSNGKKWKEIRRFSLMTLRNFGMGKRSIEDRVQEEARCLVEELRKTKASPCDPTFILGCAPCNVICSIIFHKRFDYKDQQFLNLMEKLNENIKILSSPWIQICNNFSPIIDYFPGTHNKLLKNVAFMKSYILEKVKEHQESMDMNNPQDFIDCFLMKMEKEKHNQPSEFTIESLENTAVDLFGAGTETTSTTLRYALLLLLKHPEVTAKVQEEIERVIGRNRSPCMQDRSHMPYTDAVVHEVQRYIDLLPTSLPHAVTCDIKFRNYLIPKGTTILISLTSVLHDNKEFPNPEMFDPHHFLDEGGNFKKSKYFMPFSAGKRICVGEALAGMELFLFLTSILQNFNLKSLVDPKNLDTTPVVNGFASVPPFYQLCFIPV
T1 sequence (P08684 whole entry): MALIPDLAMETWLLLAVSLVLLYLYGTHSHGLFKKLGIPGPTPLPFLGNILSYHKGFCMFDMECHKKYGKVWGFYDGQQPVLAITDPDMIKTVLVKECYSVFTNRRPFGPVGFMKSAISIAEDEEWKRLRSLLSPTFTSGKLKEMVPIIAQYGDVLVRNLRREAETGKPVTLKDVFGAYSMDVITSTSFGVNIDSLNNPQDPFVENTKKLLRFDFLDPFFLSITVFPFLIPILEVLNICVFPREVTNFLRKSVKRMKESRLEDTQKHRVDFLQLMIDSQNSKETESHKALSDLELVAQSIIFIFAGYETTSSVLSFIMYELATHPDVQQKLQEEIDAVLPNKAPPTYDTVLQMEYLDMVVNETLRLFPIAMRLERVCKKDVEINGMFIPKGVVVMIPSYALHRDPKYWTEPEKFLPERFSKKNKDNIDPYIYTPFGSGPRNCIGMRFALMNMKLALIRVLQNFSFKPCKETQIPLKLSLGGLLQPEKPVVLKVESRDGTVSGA
TRPA1, sequence (O75762 whole entry, species assumed): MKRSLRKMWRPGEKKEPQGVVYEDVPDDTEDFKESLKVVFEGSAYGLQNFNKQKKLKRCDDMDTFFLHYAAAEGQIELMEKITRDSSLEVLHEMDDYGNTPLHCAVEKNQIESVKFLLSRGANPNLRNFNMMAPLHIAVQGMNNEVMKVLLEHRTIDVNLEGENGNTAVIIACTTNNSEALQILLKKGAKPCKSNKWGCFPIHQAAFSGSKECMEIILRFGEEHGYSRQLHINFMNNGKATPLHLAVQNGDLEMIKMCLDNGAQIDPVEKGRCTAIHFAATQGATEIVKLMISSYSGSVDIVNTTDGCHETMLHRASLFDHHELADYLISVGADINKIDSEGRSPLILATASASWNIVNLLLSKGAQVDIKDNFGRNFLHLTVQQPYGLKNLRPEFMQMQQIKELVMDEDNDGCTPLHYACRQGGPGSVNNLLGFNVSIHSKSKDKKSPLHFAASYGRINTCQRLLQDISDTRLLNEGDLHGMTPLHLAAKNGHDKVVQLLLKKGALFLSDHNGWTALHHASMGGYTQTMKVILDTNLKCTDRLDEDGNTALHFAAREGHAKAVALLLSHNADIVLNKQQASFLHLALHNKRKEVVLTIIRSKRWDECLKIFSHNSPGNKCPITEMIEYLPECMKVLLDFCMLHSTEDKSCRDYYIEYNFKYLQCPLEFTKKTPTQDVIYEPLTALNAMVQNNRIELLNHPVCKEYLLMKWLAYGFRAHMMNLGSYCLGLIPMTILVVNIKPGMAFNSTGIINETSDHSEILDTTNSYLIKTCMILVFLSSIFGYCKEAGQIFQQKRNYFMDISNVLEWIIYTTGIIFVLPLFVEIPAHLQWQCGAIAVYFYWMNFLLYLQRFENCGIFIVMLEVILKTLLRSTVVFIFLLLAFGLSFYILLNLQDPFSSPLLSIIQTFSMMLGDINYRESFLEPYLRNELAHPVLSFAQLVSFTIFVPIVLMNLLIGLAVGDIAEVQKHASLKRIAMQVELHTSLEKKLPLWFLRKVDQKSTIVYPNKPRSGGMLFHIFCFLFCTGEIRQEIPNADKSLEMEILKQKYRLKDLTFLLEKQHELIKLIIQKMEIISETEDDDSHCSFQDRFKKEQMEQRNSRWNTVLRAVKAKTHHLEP

SMILES: Cn1c(C(C)(C)C)cc(=NC(=O)c2cc(C(F)(F)F)ccc2OCC(C)(C)O)n1CC1CCC1 [RNB-61]
- IC50 (CYP450 3A4): 35.5 µM
- IC50 (CYP450 2C9): 50 µM
- IC50 (CYP450 2D6): 15.5 µM
- AUC(0-inf) ([1]; iv, 1 mg kg^–1 i.v.): 5170 ng·h/mL
- Tmax ([1]; iv, 1 mg kg^–1 i.v.): 0.083 h
- clearance ([1]; iv, 1 mg kg^–1 i.v.): 3.5 mL/min/kg
- half-life ([1]; iv, 1 mg kg^–1 i.v.): 6 h
- Cmax ([1]; iv, 1 mg kg^–1 i.v., read-out: Cmax): 619 ng/mL
- Cmax ([1]; iv, 1 mg kg^–1 i.v., read-out: Cmax (molar)): 1280 nM
- Vd ([1]; iv, 1 mg kg^–1 i.v., read-out: Vss): 1.6 L/kg
- AUC(0-inf) ([1]; po, 3 mg kg^–1 p.o.): 7410 ng·h/mL
- Tmax ([1]; po, 3 mg kg^–1 p.o.): 5.5 h
- bioavailability ([1]; po, 3 mg kg^–1 p.o.): 48%
- half-life ([1]; po, 3 mg kg^–1 p.o.): 7.1 h
- Cmax ([1]; po, 3 mg kg^–1 p.o., read-out: Cmax): 446 ng/mL
- Cmax ([1]; po, 3 mg kg^–1 p.o., read-out: Cmax (molar)): 926 nM
- AUC(0-inf) ([1]; po, 26 mg kg^–1 p.o.): 117000 ng·h/mL
- Tmax ([1]; po, 26 mg kg^–1 p.o.): 3 h
- bioavailability ([1]; po, 26 mg kg^–1 p.o.): 87%
- half-life ([1]; po, 26 mg kg^–1 p.o.): 49 h
- Cmax ([1]; po, 26 mg kg^–1 p.o., read-out: Cmax): 1710 ng/mL
- Cmax ([1]; po, 26 mg kg^–1 p.o., read-out: Cmax (molar)): 3500 nM
- microsomal CLint (Microsomal clearance [2]; Table 1): < 10 µL/min/mg
- microsomal CLint (Microsomal clearance [2]; Table 3): ≤ 10 µL/min/mg
- IC50 (TRPA1): > 50 µM
- Ki (human CB2R): 0.00057 ± 3e-05 µM
- hCB2R selectivity (human CB2R; Ki hCB1R over Ki hCB2R): 6810
- selectivity over hCB1R (human CB2R; hCB2R over hCB1R): 6,800 fold
- microsomal CLint (Microsomal clearance [3]): ≤ 10 µL/min/mg
- IC50 ([4]; Table S1, read-out: EMT (Ki, IC50)): > 10 µM
- inhibition of cellular AEA uptake (EMT) ([4]; screening concentration 10 μM): did not inhibit
- binding to 80 additional receptors (significant = ≥50% of probe displacement) (80 additional receptors; 10 μM, most receptors, exception Na+ channel site 2): no significant binding
- interaction with 80 additional receptor targets (significant = >50% inhibition) (80 additional receptors; up to 1 μM): no significant interaction
- IC50 (GPR55): > 50 µM
- Ki (hCB1R): 3.88 ± 0.0734 µM
